Laboratory results as given in ChEMBL document CHEMBL1201861, “Genomics of Drug Sensitity in Cancer screening data, Wellcome Trust Sanger Institute”.

Legend:
[1] = tested on: BC-3; assay: cells; type: functional, cell-based; conditions: Homo sapiens;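 also: cell viability assay measuring growth inhibition of human BC-3 cells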
Description: SANGER: Inhibition of human BC-3 cell growth in a cell viability assay.

[2] = tested on: NCI-H716; assay: cells; type: functional, cell-based; conditions: Homo sapiens;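 also: growth inhibition of human NCI-H716 cells, measured by a cell viability assay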
Description: SANGER: Inhibition of human NCI-H716 cell growth in a cell viability assay.

[3] = tested on: COR-L279; assay: SANGER: Inhibition of human COR-L279 cell growth in a cell viability assay.; type: functional, cell-based
[4] = tested on: C2BBe1; assay: cells; type: functional, cell-based, Homo sapiens; conditions: Homo sapiens, C2BBe1;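 also: growth inhibition of C2BBe1 cells, read out through a viability assay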
Description: SANGER: Inhibition of human C2BBe1 cell growth in a cell viability assay.

[5] = tested on: NCI-H889; assay: cells; type: functional, cell-based; conditions: Homo sapiens;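 also: cell growth inhibition of the cell line, read out with a viability assay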
Description: SANGER: Inhibition of human NCI-H889 cell growth in a cell viability assay.

[6] = tested on: SIMA; assay: cells; type: functional, cell-based, Homo sapiens; conditions: Homo sapiens, SIMA;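 also: growth inhibition of SIMA cells, measured with a cell viability readout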
Description: SANGER: Inhibition of human SIMA cell growth in a cell viability assay.

[7] = tested on: CPC-N; assay: cells; type: functional, cell-based; conditions: Homo sapiens;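 also: growth inhibition of CPC-N cells, with a cell viability assay as the readout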
Description: SANGER: Inhibition of human CPC-N cell growth in a cell viability assay.

[8] = tested on: P31-FUJ; assay: cells; type: functional, cell-based; conditions: Homo sapiens;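 also: growth inhibition of P31-FUJ cells, read out with a viability assay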
Description: SANGER: Inhibition of human P31-FUJ cell growth in a cell viability assay.

[9] = tested on: TALL-1; assay: cells; type: functional, cell-based; conditions: Homo sapiens;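 also: growth inhibition of cultured human TALL-1 cells, read out by a cell viability assay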
Description: SANGER: Inhibition of human TALL-1 cell growth in a cell viability assay.

[10] = tested on: YT; assay: cells; type: functional, cell-based; conditions: Homo sapiens
Description: SANGER: Inhibition of human YT cell growth in a cell viability assay.

[11] = tested on: TE-441-T; assay: cells; type: functional, cell-based; conditions: Homo sapiens
Description: SANGER: Inhibition of human TE-441-T cell growth in a cell viability assay.

[12] = tested on: SUP-T1; assay: cells; type: functional, cell-based; conditions: Homo sapiens;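 also: growth inhibition of human SUP-T1 cells, read out as cell viability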
Description: SANGER: Inhibition of human SUP-T1 cell growth in a cell viability assay.

[13] = tested on: NCI-H1092; assay: cells; type: functional, cell-based; conditions: Homo sapiens
Description: SANGER: Inhibition of human NCI-H1092 cell growth in a cell viability assay.

[14] = tested on: LU-165; assay: cells; type: functional, cell-based; conditions: Homo sapiens
Description: SANGER: Inhibition of human LU-165 cell growth in a cell viability assay.

[15] = tested on: LXF-289 cell line; assay: cells; type: functional, cell-based, Homo sapiens; conditions: Homo sapiens, LXF-289
Description: SANGER: Inhibition of human LXF-289 cell growth in a cell viability assay.

[16] = tested on: SF-539; assay: cells; type: functional, cell-based, Homo sapiens; conditions: Homo sapiens, SF-539;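 also: Read-out is a cell viability assay, with IC50 reflecting inhibition of cell growth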
Description: SANGER: Inhibition of human SF539 cell growth in a cell viability assay.

[17] = tested on: CP66-MEL; assay: cells; type: functional, cell-based, Homo sapiens; conditions: Homo sapiens, CP66-MEL;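 also: growth inhibition of CP66-MEL cells determined in a cell viability assay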
Description: SANGER: Inhibition of human CP66-MEL cell growth in a cell viability assay.

[18] = tested on: RL; assay: cells; type: functional, cell-based; conditions: Homo sapiens
Description: SANGER: Inhibition of human RL cell growth in a cell viability assay.

[19] = tested on: RL95-2; assay: cells; type: functional, cell-based; conditions: Homo sapiens;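 also: RL95-2 growth inhibition determined through a cell viability readout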
Description: SANGER: Inhibition of human RL95-2 cell growth in a cell viability assay.

[20] = tested on: BL-41; assay: cells; type: functional, cell-based; conditions: Homo sapiens;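 also: growth inhibition of human BL-41 cells, read out with a cell viability assay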
Description: SANGER: Inhibition of human BL-41 cell growth in a cell viability assay.

[21] = tested on: JVM-3; assay: cells; type: functional, cell-based; conditions: Homo sapiens;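 also: growth inhibition of human JVM-3 cells, read out with a cell viability assay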
Description: SANGER: Inhibition of human JVM-3 cell growth in a cell viability assay.

[22] = tested on: A3-KAW; assay: cells; type: functional, cell-based; conditions: Homo sapiens;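 also: growth inhibition of human A3-KAW cells, read out with a cell viability assay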
Description: SANGER: Inhibition of human A3-KAW cell growth in a cell viability assay.

[23] = tested on: U-698-M; assay: cells; type: functional, cell-based; conditions: Homo sapiens
Description: SANGER: Inhibition of human U-698-M cell growth in a cell viability assay.

[24] = tested on: NCI-H2196; assay: cells; type: functional, cell-based; conditions: Homo sapiens;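 also: cell viability assay used as the readout of growth inhibition in NCI-H2196 cells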
Description: SANGER: Inhibition of human NCI-H2196 cell growth in a cell viability assay.

[25] = tested on: NCI-H1436; assay: cells; type: functional, cell-based; conditions: Homo sapiens;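 also: growth suppression of human NCI-H1436 cells, determined with a cell viability readout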
Description: SANGER: Inhibition of human NCI-H1436 cell growth in a cell viability assay.

[26] = tested on: LC4-1; assay: cells; type: functional, cell-based; conditions: Homo sapiens;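 also: growth inhibition of LC4-1 cells, read out with a cell viability assay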
Description: SANGER: Inhibition of human LC4-1 cell growth in a cell viability assay.

[27] = tested on: U-87 MG; assay: cells; type: functional, cell-based, U-87MG ATCC; conditions: Homo sapiens
Description: SANGER: Inhibition of human U-87-MG cell growth in a cell viability assay.

[28] = tested on: LB831-BLC; assay: cells; type: functional, cell-based, Homo sapiens; conditions: Homo sapiens, LB831-BLC;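 also: growth inhibition of LB831-BLC cells, read out with a cell viability assay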
Description: SANGER: Inhibition of human LB831-BLC cell growth in a cell viability assay.

[29] = tested on: TE-9; assay: cells; type: functional, cell-based, Homo sapiens; conditions: Homo sapiens, TE-9;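 also: cell growth inhibition, measured with a cell viability readout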
Description: SANGER: Inhibition of human TE-9 cell growth in a cell viability assay.

[30] = tested on: NCI-H1963; assay: cells; type: functional, cell-based; conditions: Homo sapiens;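 also: cell growth inhibition of the human line, determined with a cell viability assay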
Description: SANGER: Inhibition of human NCI-H1963 cell growth in a cell viability assay.

[31] = tested on: KARPAS-422; assay: cells; type: functional, cell-based; conditions: Homo sapiens
Description: SANGER: Inhibition of human KARPAS-422 cell growth in a cell viability assay.

[32] = tested on: L-540; assay: cells; type: functional, cell-based; conditions: Homo sapiens;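 also: growth inhibition of the human L-540 cell line, read out with a viability assay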
Description: SANGER: Inhibition of human L-540 cell growth in a cell viability assay.

[33] = tested on: MONO-MAC-6; assay: cells; type: functional, cell-based; conditions: Homo sapiens;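 also: cell viability assay measuring growth inhibition of human MONO-MAC-6 cells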
Description: SANGER: Inhibition of human MONO-MAC-6 cell growth in a cell viability assay.

[34] = tested on: OPM-2; assay: cells; type: functional, cell-based; conditions: Homo sapiens;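 also: growth of OPM-2 cells measured with a viability assay, IC50 for suppression of proliferation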
Description: SANGER: Inhibition of human OPM-2 cell growth in a cell viability assay.

[35] = tested on: GDM-1; assay: cells; type: functional, cell-based; conditions: Homo sapiens;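 also: cell viability readout used to measure growth inhibition of human GDM-1 cells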
Description: SANGER: Inhibition of human GDM-1 cell growth in a cell viability assay.

[36] = tested on: LAMA-84; assay: cells; type: functional, cell-based; conditions: Homo sapiens;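 also: growth inhibition of LAMA-84 cells, read out with a cell viability assay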
Description: SANGER: Inhibition of human LAMA-84 cell growth in a cell viability assay.

[37] = tested on: BL-70; assay: SANGER: Inhibition of human BL-70 cell growth in a cell viability assay.; type: functional, cell-based
[38] = tested on: UACC-812; assay: cells; type: functional, cell-based; conditions: Homo sapiens
Description: SANGER: Inhibition of human UACC-812 cell growth in a cell viability assay.

[39] = tested on: NCI-H1993; assay: cells; type: functional, cell-based, Homo sapiens; conditions: Homo sapiens, NCI-H1993;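 also: growth inhibition of the cancer cell line, assessed with a cell viability assay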
Description: SANGER: Inhibition of human NCI-H1993 cell growth in a cell viability assay.

[40] = tested on: HSC-4; assay: cells; type: functional, cell-based, Homo sapiens; conditions: Homo sapiens, HSC-4;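 also: growth inhibition of human HSC-4 cells, read out with a cell viability assay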
Description: SANGER: Inhibition of human HSC-4 cell growth in a cell viability assay.

[41] = tested on: NCI-H2405; assay: cells; type: functional, cell-based, Homo sapiens; conditions: Homo sapiens, NCI-H2405;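 also: growth inhibition of the human cell line, read out with a cell viability assay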
Description: SANGER: Inhibition of human NCI-H2405 cell growth in a cell viability assay.

[42] = tested on: 23132-87; assay: cells; type: functional, cell-based, Homo sapiens; conditions: Homo sapiens
Description: SANGER: Inhibition of human 23132-87 cell growth in a cell viability assay.

[43] = tested on: G-401; assay: cells; type: functional, cell-based, Homo sapiens; conditions: Homo sapiens, G-401
Description: SANGER: Inhibition of human G-401 cell growth in a cell viability assay.

[44] = tested on: ASPC1; assay: cells; type: functional, cell-based, Homo sapiens; conditions: Homo sapiens, ASPC1;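 also: growth inhibition of AsPC-1 cells, read out with a cell viability assay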
Description: SANGER: Inhibition of human AsPC-1 cell growth in a cell viability assay.

[45] = tested on: IGR-1; assay: cells; type: functional, cell-based, Homo sapiens; conditions: Homo sapiens, IGR-1;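 also: growth inhibition of human IGR-1 cells, read out with a cell viability assay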
Description: SANGER: Inhibition of human IGR-1 cell growth in a cell viability assay.

[46] = tested on: HT55; assay: cells; type: functional, cell-based, Homo sapiens; conditions: Homo sapiens, HT55;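 also: cell viability readout measuring growth inhibition of human HT55 cells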
Description: SANGER: Inhibition of human HT55 cell growth in a cell viability assay.

[47] = tested on: T-24; assay: cells; type: functional, cell-based, Homo sapiens; conditions: Homo sapiens, T-24;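 also: growth inhibition of T-24 cells, read out with a cell viability assay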
Description: SANGER: Inhibition of human T-24 cell growth in a cell viability assay.

[48] = tested on: CAL-12T; assay: cells; type: functional, cell-based, Homo sapiens; conditions: Homo sapiens, CAL-12T;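 also: growth inhibition of human CAL-12T cells, read out with a cell viability assay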
Description: SANGER: Inhibition of human CAL-12T cell growth in a cell viability assay.

[49] = tested on: RD; assay: cells; type: functional, cell-based, Homo sapiens; conditions: Homo sapiens, RD
Description: SANGER: Inhibition of human RD cell growth in a cell viability assay.

[50] = tested on: HCC 2998; assay: cells; type: functional, cell-based, Homo sapiens; conditions: Homo sapiens, HCC 2998;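 also: growth inhibition of human HCC2998 cells, measured with a cell viability read-out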
Description: SANGER: Inhibition of human HCC2998 cell growth in a cell viability assay.

## Cc1cc(Nc2cc(N3CCN(C)CC3)nc(Sc3ccc(NC(=O)C4CC4)cc3)n2)n[nH]1 [TOZASERTIB]
[1]
  IC50: > 2000 nM
[2]
  IC50: > 2000 nM
[3]
  IC50: > 2000 nM
[4]
  IC50: > 2000 nM
[5]
  IC50: > 2000 nM
[6]
  IC50: > 2000 nM
[7]
  IC50: > 2000 nM
[8]
  IC50: > 2000 nM
[9]
  IC50: > 2000 nM
[10]
  IC50: > 2000 nM
[11]
  IC50: > 2000 nM
[12]
  IC50: > 2000 nM
[13]
  IC50: > 2000 nM
[14]
  IC50: > 2000 nM
[15]
  IC50: 404 nM
[16]
  IC50: > 2000 nM
[17]
  IC50: > 2000 nM
[18]
  IC50: > 2000 nM
[19]
  IC50: 406 nM
[20]
  IC50: 104 nM
[21]
  IC50: > 2000 nM
[22]
  IC50: > 2000 nM
[23]
  IC50: > 2000 nM
[24]
  IC50: > 2000 nM
[25]
  IC50: > 2000 nM
[26]
  IC50: > 2000 nM
[27]
  IC50: > 2000 nM
[28]
  IC50: > 2000 nM
[29]
  IC50: > 2000 nM
[30]
  IC50: 1710 nM
[31]
  IC50: 373 nM
[32]
  IC50: > 2000 nM
[33]
  IC50: 78.8 nM
[34]
  IC50: > 2000 nM
[35]
  IC50: > 2000 nM
[36]
  IC50: 352 nM
[37]
  IC50: 390 nM

## CO[C@H]1C[C@@H]2CC[C@@H](C)[C@@](O)(O2)C(=O)C(=O)N2CCCC[C@H]2C(=O)O[C@H]([C@H](C)C[C@@H]2CC[C@@H](O)[C@H](OC)C2)CC(=O)[C@H](C)/C=C(\C)[C@@H](O)[C@@H](OC)C(=O)[C@H](C)C[C@H](C)/C=C/C=C/C=C/1C [SIROLIMUS]
[1]
  IC50: 99.2 nM
[2]
  IC50: > 100 nM
[3]
  IC50: 87.3 nM
[4]
  IC50: > 100 nM
[5]
  IC50: > 100 nM
[6]
  IC50: > 100 nM
[7]
  IC50: > 100 nM
[8]
  IC50: > 100 nM
[9]
  IC50: > 100 nM
[10]
  IC50: > 100 nM
[11]
  IC50: > 100 nM
[12]
  IC50: > 100 nM
[13]
  IC50: > 100 nM
[14]
  IC50: > 100 nM
[15]
  IC50: > 100 nM
[16]
  IC50: < 0.391 nM
[17]
  IC50: > 100 nM
[18]
  IC50: > 100 nM
[19]
  IC50: 0.107 nM
[20]
  IC50: 43.7 nM
[21]
  IC50: > 100 nM
[22]
  IC50: 2.99 nM
[23]
  IC50: > 100 nM
[24]
  IC50: > 100 nM
[25]
  IC50: > 100 nM
[26]
  IC50: 86.7 nM
[27]
  IC50: > 100 nM
[28]
  IC50: > 100 nM
[29]
  IC50: > 100 nM
[38]
  IC50: > 100 nM
[30]
  IC50: > 100 nM
[31]
  IC50: > 100 nM
[32]
  IC50: 10.4 nM
[33]
  IC50: > 100 nM
[34]
  IC50: 4.15 nM
[35]
  IC50: > 100 nM
[36]
  IC50: > 100 nM
[37]
  IC50: 28.4 nM

## C=CCc1cccc(/C=N/NC(=O)CN2CCN(Cc3ccccc3)CC2)c1O [PAC-1]
[1]
  IC50: > 2560 nM
[39]
  IC50: > 2560 nM
[2]
  IC50: > 2560 nM
[40]
  IC50: > 2560 nM
[3]
  IC50: > 2560 nM
[4]
  IC50: > 2560 nM
[41]
  IC50: > 2560 nM
[5]
  IC50: > 2560 nM
[6]
  IC50: > 2560 nM
[7]
  IC50: > 2560 nM
[8]
  IC50: > 2560 nM
[9]
  IC50: > 2560 nM
[42]
  IC50: > 2560 nM
[10]
  IC50: > 2560 nM
[43]
  IC50: 1010 nM
[11]
  IC50: > 2560 nM
[44]
  IC50: > 2560 nM
[45]
  IC50: > 2560 nM
[12]
  IC50: 1000 nM
[13]
  IC50: > 2560 nM
[14]
  IC50: > 2560 nM
[15]
  IC50: > 2560 nM
[16]
  IC50: > 2560 nM
[17]
  IC50: > 2560 nM
[18]
  IC50: > 2560 nM
[46]
  IC50: > 2560 nM
[20]
  IC50: 1450 nM
[21]
  IC50: > 2560 nM
[22]
  IC50: 1930 nM
[23]
  IC50: > 2560 nM
[24]
  IC50: > 2560 nM
[25]
  IC50: > 2560 nM
[26]
  IC50: > 2560 nM
[27]
  IC50: > 2560 nM
[28]
  IC50: > 2560 nM
[47]
  IC50: > 2560 nM
[48]
  IC50: > 2560 nM
[29]
  IC50: > 2560 nM
[49]
  IC50: > 2560 nM
[38]
  IC50: > 2560 nM
[30]
  IC50: > 2560 nM
[31]
  IC50: > 2560 nM
[32]
  IC50: 2200 nM
[33]
  IC50: > 2560 nM
[50]
  IC50: 1180 nM
[34]
  IC50: > 2560 nM
[35]
  IC50: > 2560 nM
[36]
  IC50: > 2560 nM
[37]
  IC50: 1970 nM

## CCC(=O)N1CCN(c2ccc(-n3c(=O)ccc4cnc5ccc(-c6cnc7ccccc7c6)cc5c43)cc2C(F)(F)F)CC1 [TORIN1]
[1]
  IC50: 82 nM
[2]
  IC50: > 1200 nM
[3]
  IC50: 108 nM
[4]
  IC50: 137 nM
[5]
  IC50: > 1200 nM
[6]
  IC50: > 1200 nM
[7]
  IC50: 1160 nM
[8]
  IC50: > 1200 nM
[9]
  IC50: 229 nM
[10]
  IC50: > 1200 nM
[11]
  IC50: 1040 nM
[12]
  IC50: > 1200 nM
[13]
  IC50: > 1200 nM
[14]
  IC50: > 1200 nM
[15]
  IC50: 28.7 nM
[16]
  IC50: 984 nM
[17]
  IC50: 314 nM
[18]
  IC50: > 1200 nM
[19]
  IC50: 3.2 nM
[20]
  IC50: 6.96 nM
[21]
  IC50: > 1200 nM
[22]
  IC50: 62.2 nM
[23]
  IC50: > 1200 nM
[24]
  IC50: 330 nM
[25]
  IC50: > 1200 nM
[26]
  IC50: 87.4 nM
[27]
  IC50: > 1200 nM
[28]
  IC50: 161 nM
[29]
  IC50: 290 nM
[30]
  IC50: 626 nM
[31]
  IC50: 124 nM
[32]
  IC50: 301 nM
[33]
  IC50: 72.1 nM
[34]
  IC50: 12.9 nM
[35]
  IC50: 372 nM
[36]
  IC50: 21.7 nM
[37]
  IC50: 3.37 nM
